Data: US8030498B2, “Benzoylpyrazole compounds and herbicides containing them” (Ishihara Sangyo Kaisha, Ltd., priority 2005, dated 2011)

How the values were obtained:
Type in all cases: in vivo
rice (Oryza sativa L.) = experiment: Test Example 1: foliar treatment, growth inhibition rate, rice; conditions: visually observed 17th to 23rd day after application
From the text: (§1) Upland field soil was put into a 1/170,000 hectare pot, and seeds of various plants were sown. When the respective plants reached predetermined leaf stage ((1) barnyardgrass (Echinochloa crus-galli L.); 0.8 to 2.5 leaf stage, (2) crabgrass (Digitaria sanguinalis L.): 0.5 to 3.0 leaf stage, (3) greenfoxtail (Setaria viridis L.): 1.0 to 3.0 leaf stage, (4) redroot pigweed (Amaranthus retroflexus L.): cotyledon stage to 2.0 leaf stage, (5) prickly sida (Sida spinosa L.): cotyledon stage to 1.1 leaf stage, (6) velvetleaf (Abutilon theophrasti MEDIC.): cotyledon stage to 1.5 leaf stage, (7) rice (Oryza sativa L.): 1.0 to 2.5 leaf stage, (8) wheat (Triticum spp.): 1.7 to 3.4 leaf stage, (9) corn (Zea mays L.): 2.0 to 3.5 leaf stage, and (10) soybean (Glycine max Merr.): primary leaf stage to 0.3 leaf stage), wettable powders or emulsifiable concentrates of the compounds of the present invention prepared in accordance with a conventional preparation method, were weighed so that the active ingredients became the prescribed amounts, and diluted with water in an amount corresponding to 500 liter per 1 hectare. 0.1 vol % of an agricultural spreader was further added to the respective diluted liquids, followed by foliar treatment with a small sprayer.
(§2) On the 17th to 23rd day after application, the state of growth of the respective plants was visually observed, and the herbicidal effect was evaluated in accordance with a growth inhibition rate (%) of 0 (equivalent to the non-treated area) to 100% (complete kill).

[1] = system: redroot pigweed (Amaranthus retroflexus L.); experiment: Test Example 1: foliar treatment, growth inhibition rate, redroot pigweed; conditions: visually observed 17th to 23rd day after application
From the text: as §1, §2

[2] = system: greenfoxtail (Setaria viridis L.); experiment: Test Example 1: foliar treatment, growth inhibition rate, greenfoxtail; conditions: visually observed 17th to 23rd day after application
From the text: as §1, §2

[3] = system: prickly sida (Sida spinosa L.); experiment: Test Example 1: foliar treatment, growth inhibition rate, prickly sida; conditions: visually observed 17th to 23rd day after application
From the text: as §1, §2

[4] = system: barnyardgrass (Echinochloa crus-galli L.); experiment: Test Example 1: foliar treatment, growth inhibition rate, barnyardgrass; conditions: visually observed 17th to 23rd day after application
From the text: as §1, §2

wheat (Triticum spp.) = experiment: Test Example 1: foliar treatment, growth inhibition rate, wheat; conditions: 63 g/ha active ingredient, visually observed 17th to 23rd day after application
From the text: as §1, §2

corn (Zea mays L.) = experiment: Test Example 1: foliar treatment, growth inhibition rate, corn; conditions: visually observed 17th to 23rd day after application
From the text: as §1, §2

[5] = system: soybean (Glycine max Merr.); experiment: Test Example 1: foliar treatment, growth inhibition rate, soybean; conditions: visually observed 17th to 23rd day after application
From the text: as §1, §2

[6] = system: crabgrass (Digitaria sanguinalis L.); experiment: Test Example 1: foliar treatment, growth inhibition rate, crabgrass; conditions: visually observed 17th to 23rd day after application
From the text: as §1, §2

[7] = system: velvetleaf (Abutilon theophrasti MEDIC.); experiment: Test Example 1: foliar treatment, growth inhibition rate, velvetleaf; conditions: visually observed 17th to 23rd day after application
From the text: as §1, §2

Structure (SMILES) | Growth inhibition rate (%) Rice (rice (Oryza sativa L.); 63 g/ha active ingredient) | Growth inhibition rate (%) redroot pigweed ([1]; 63 g/ha active ingredient) | Growth inhibition rate (%) Greenfoxtail ([2]; 63 g/ha active ingredient) | Growth inhibition rate (%) Prickly sida ([3]; 63 g/ha active ingredient) | Growth inhibition rate (%) Barnyardgrass ([4]; 63 g/ha active ingredient) | Growth inhibition rate (%) Wheat (wheat (Triticum spp.)) | Growth inhibition rate (%) Corn (corn (Zea mays L.); 63 g/ha active ingredient) | Growth inhibition rate (%) Soybean ([5]; 63 g/ha active ingredient) | Growth inhibition rate (%) Crabgrass ([6]; 63 g/ha active ingredient) | Growth inhibition rate (%) Velvetleaf ([7]; 63 g/ha active ingredient) | Growth inhibition rate (%) Rice (rice (Oryza sativa L.); 31 g/ha active ingredient) | Growth inhibition rate (%) Greenfoxtail ([2]; 31 g/ha active ingredient) | Growth inhibition rate (%) Prickly sida ([3]; 31 g/ha active ingredient) | Growth inhibition rate (%) Barnyardgrass ([4]; 31 g/ha active ingredient) | Growth inhibition rate (%) Corn (corn (Zea mays L.); 31 g/ha active ingredient) | Growth inhibition rate (%) Soybean ([5]; 31 g/ha active ingredient) | Growth inhibition rate (%) Crabgrass ([6]; 31 g/ha active ingredient) | Growth inhibition rate (%) Velvetleaf ([7]; 31 g/ha active ingredient) | Growth inhibition rate (%) redroot pigweed ([1]; 31 g/ha active ingredient)
CCSC(=O)Oc1c(C(=O)c2ccc(S(C)(=O)=O)c(CN(CC#N)C(=O)SCC)c2C)cnn1C [compound 228] | 0% | 40% | 40% | 40% | 98% | 0% | 0% | 80% | 60% | 70% | – | – | – | – | – | – | – | – | –
CCSC(=O)Oc1c(C(=O)c2ccc(S(C)(=O)=O)c(C=CC#N)c2C)cnn1C [compound 229] | 95% | 100% | 100% | 98% | 100% | 50% | 60% | 98% | 100% | 100% | – | – | – | – | – | – | – | – | –
CCSC(=O)Oc1c(C(=O)c2ccc(S(C)(=O)=O)c(CCC#N)c2C)cnn1C [compound 230] | 95% | 100% | 100% | 80% | 100% | 40% | 0% | 100% | 100% | 95% | – | – | – | – | – | – | – | – | –
CCSC(=O)Oc1c(C(=O)c2ccc(S(C)(=O)=O)c(CC(N)=S)c2C)cnn1C [compound 232] | 95% | – | 95% | 70% | 90% | 0% | 0% | 90% | 95% | 90% | – | – | – | – | – | – | – | – | –
CCSC(=O)Oc1c(C(=O)c2ccc(S(C)(=O)=O)c(CC3OCCO3)c2C)cnn1C [compound 238] | 90% | 100% | 98% | 98% | 100% | 10% | 0% | 98% | 98% | 100% | – | – | – | – | – | – | – | – | –
CCC(C)SC(=O)Oc1c(C(=O)c2ccc(S(C)(=O)=O)c(OCCOC)c2C)cnn1C (stereo not drawn) [compound 239] | – | – | – | – | – | – | – | – | – | – | 85% | 100% | 80% | 98% | 0% | 100% | 100% | 100% | –
COCCOc1c(S(C)(=O)=O)ccc(C(=O)c2cnn(C)c2OC(=O)SC(C)(C)C)c1C [compound 241] | – | – | – | – | – | – | – | – | – | – | 90% | 100% | 90% | 100% | 0% | 100% | 98% | 100% | 100%
